Laboratory results reported in ChEMBL document CHEMBL1157177, “Trivalent, Gal/GalNAc-containing ligands designed for the asialoglycoprotein receptor” (Bioorg Med Chem, 2008).

Test: Displacement of [125I]asialoorosomucoid from ASGP receptor

Ki [nM] | SMILES
2 | CC(=O)N[C@H]1[C@H](OCCOCCOCCNC(=O)CCOCC(COCCC(=O)NCCOCCOCCO[C@@H]2O[C@H](CO)[C@H](O)[C@H](O)[C@H]2NC(C)=O)(COCCC(=O)NCCOCCOCCO[C@@H]2O[C@H](CO)[C@H](O)[C@H](O)[C@H]2NC(C)=O)NC(=O)CN)O[C@H](CO)[C@H](O)[C@@H]1O
200 | COC(=O)CCCCC(=O)NCC(=O)NC(COCOCCOCCOCCOCCO[C@@H]1O[C@H](CO)[C@H](O)[C@H](O)[C@H]1O)(COCOCCOCCOCCOCCO[C@@H]1O[C@H](CO)[C@H](O)[C@H](O)[C@H]1O)COCOCCOCCOCCOCCO[C@@H]1O[C@H](CO)[C@H](O)[C@H](O)[C@H]1O
93 | O=C(CCCCO[C@@H]1O[C@H](CO)[C@H](O)[C@H](O)[C@H]1O)NCCCNC(=O)CCOCC(COCCC(=O)NCCCNC(=O)CCCCO[C@@H]1O[C@H](CO)[C@H](O)[C@H](O)[C@H]1O)(COCCC(=O)NCCCNC(=O)CCCCO[C@@H]1O[C@H](CO)[C@H](O)[C@H](O)[C@H]1O)NC(=O)CNC(=O)OCc1ccccc1
